According to patent US11634409B2, “Compounds for the treatment of BRAF-associated diseases and disorders” (Array BioPharma Inc., priority 2019, dated 2023):
Like-named read-outs stand apart in the source and are kept apart here.

Legend:
[1] = target: full-length FLAG-tagged B-Raf(V600E) (Homo sapiens (Human), UniProt P15056, V600E); experiment: BRAF V600E enzyme assay (TR-FRET competitive displacement); type: binding; settings: averaged IC50; 60 min, ambient temperature
Source text: (§1) A competitive displacement assay was configured for B-Raf that monitors the amount of a fluorescently-tagged “tracer” bound to B-Raf via TR-FRET from an anti-tag Eu-labeled antibody also bound to B-Raf.
(§2) [formula] • where: • Xmax Average Uninhibited Controls • Xm Average Background
(§3) A 4-parameter logistic model was the fit to the POC data for each compound.

BCRP [2] = target: T1, BCRP (Homo sapiens (Human), UniProt Q9UNQ0); experiment: BCRP efflux ratio in BCRP transfected MDCKII cells; settings: for BCRP efflux ratio: Papp(B−A)/Papp(A−B), BCRP transfected MDCKII cells, 1 μM; for efflux ratio at 2 h, 1 μM: dog
Procedure: (§4) MDR1 LLC-PK1 and BCRP MDCKII Permeability Assay
(§5) BCRP transfected MDCKII cells were cultured and plated according to manufacturer's recommendations. Assay conditions included with and without the BCRP-specific inhibitor, KO0143, at a concentration of 0.3 μM to ascertain the contribution of BCRP to the efflux value of the test compound.
(§6) Both positive and negative controls were used to assess functionality of P-gp or BCRP efflux in the assays. […] Final organic concentration in the assay was 1%. All dosing solutions contained 10 μM lucifer yellow to monitor LLC-PK1 or MDCKII cell monolayer integrity.
(§7) For the apical to basolateral determination (A to B), 75 μL of the test article in transport buffer were added to the apical side of the individual transwells and 250 μL of basolateral media, without compound or lucifer yellow, were added to each well. For the basolateral to apical determination (B to A), 250 μL of test article in transport buffer were added to each well and 75 μL transport buffer, without compound or lucifer yellow, were added to each transwell. All tests were performed in triplicate, and each compound was tested for both apical to basolateral and basolateral to apical transport. The plates were incubated for 2 hours on a Lab-Line Instruments Titer Orbital Shaker (VWR, West Chester, Pa.) at 50 rpm and 37° C. with 5% CO2. All culture plates were removed from the incubator and 50 μL of media were removed from the apical and basolateral portion of each well and added to 150 μL of 1 μM labetalol in 2:1 acetonitrile (acetonitrile): H2O, v/v.
(§8) These values were accepted when found to be below 2% for apical to basolateral and 5% basolateral to apical flux across the MDR1-transfected LLC-PK1 or BCRP-transfected MDCKII cell monolayers. The plates were sealed and the contents of each well analyzed by LC-MS/MS. The compound concentrations were determined from the ratio of the peak areas of the compound to the internal standard (labetalol) in comparison to the dosing solution.
(§9) The LC-MS/MS system was comprised of an HTS-PAL autosampler (Leap Technologies, Carrboro, N.C.), an HP1200 HPLC (Agilent, Palo Alto, Calif.), and a MDS Sciex 4000 Q Trap system (Applied Biosystems, Foster City, Calif.). […] The total run time, including re-equilibration, for a single injection was 1.2 minutes. Mass spectrometric detection of the analytes was accomplished using the ion spray positive mode.
(§10) An efflux ratio is calculated from the mean apical to basolateral (A-B) Papp data and basolateral to apical (B-A) Papp data: Efflux ratio=Papp(B−A)/Papp(A−B)

P-gp (MDR1) [3] = target: T2, P-gp (MDR1) (Homo sapiens (Human), UniProt P08183); experiment: MDR1 efflux ratio in MDR1 transfected LLC-PK1 cells; settings: for MDR1 efflux ratio: Papp(B−A)/Papp(A−B), MDR1 transfected LLC-PK1 cells, 1 μM; for efflux ratio at 2 h, 1 μM: pig, LLC-PK1
Procedure: (§11) Both LLC-PK1 and MDR1 transfected LLC-PK1 cells were cultured and plated according to manufacturer's recommendations with the exception that the passage media contained only 2% fetal bovine serum to extend passage time out to seven days.
as §6, §7, §8, §9, §10

[4] = test system: LLC-PK1 or MDCKII cell monolayer; experiment: MDR1 LLC-PK1 and BCRP MDCKII permeability assay (Papp); settings: Papp; test article 1 μM, 2 hours, 37° C.
Procedure: as §4, §11, §5, §6, §7, §8, §9
(§12) where Cd, V, t and C0 are the detected concentration (μM), the volume on the dosing side (mL), the incubation time (s) and the initial dosing concentration (μM), respectively. The calculations for Papp were made for each replicate and then averaged.

[5] = test system: LLC-PK1 or MDCKII cell monolayer
Procedure: as §4, §11, §5, §6, §7, §8, §9, §12

[6] = PK (free brain-to-free plasma ratio) (mouse); type: in vivo; settings: male CD-1 mice, oral gavage 10 mg/kg, (B/P)*(Bfu/Pfu)
Procedure: PK (Free Brain-to-Free Plasma Ratio) (Mouse)
The ability of representative compounds to penetrate the BBB in mice was determined by evaluating the unbound brain-to-unbound plasma (also referred to as free brain-to-free plasma) concentration ratio in male CD-1 mice.
Brain samples were stored at −20±5° C. prior to analysis. Concentrations of test compound in mouse brain homogenate were determined by liquid chromatography tandem mass spectrometry (LC-MS/MS) following protein precipitation with acetonitrile. A 12-point calibration curve, ranging from 0.5 to 10,000 ng/mL, was prepared in duplicate. A solution of 400 μg/mL of test compound in dimethyl sulfoxide (DMSO) was serially diluted (3-fold) in 100% DMSO, and then 2.5 μL of each standard solution was added to 100 μL of naïve male CD-1 mice brain homogenate. To mimic the extraction in the standard curve, 2.5 μL of DMSO was added to all test samples. […]
Brain-to-plasma ratios were calculated using the concentration of compound measured in the brain divided by the concentration of compound measured in the plasma. […] Free brain-to-free plasma ratios were calculated by multiplying the brain-to-plasma ratio by the in vitro brain homogenate free fraction divided by the in vitro plasma free fraction using the following equation: (B/P)*(Bfu/Pfu).

GST-tagged B-Raf(V600K) = GST-tagged B-Raf(V600K) (Homo sapiens, UniProt P15056, V600K); experiment: BRAF V600K enzyme assay (TR-FRET competitive displacement); type: binding; settings: averaged IC50; 60 min, ambient temperature
Source text: as §1, §2, §3

[7] = MDR1 LLC-PK1 and BCRP MDCKII permeability assay (Papp)
Procedure: as §4, §11, §5, §6, §7, §8, §9, §12

[8] = test system: A375-luciferase intracranial tumor xenografts; experiment: Intracranial A375-luciferase efficacy and survival mouse tumor model; type: in vivo, Female nu/nu NCr mice; settings: BID PO 60 consecutive days, FIG. 15
Procedure: Female nu/nu NCr mice from Envigo (Indianapolis, Ind.) were obtained at 5-6 weeks of age and housed in groups of 5. Following a one week minimum acclimation period, mice received orthotopic (i.c.) intracranial injections of 3.0×10^3 A375-luciferase tumor cells suspended in a volume of 10 μL 0.9% sterile Dulbecco's phosphate buffered saline (DPBS) using the top-down approach (Laursen and Belknap, 1986). Seven days post cell implant (Day 1), animals were randomized and sorted into five groups (n=10/group).
Test compounds were given at a dose volume of 10 mL/kg, and vehicles were matched for each group to control for dosing stress, i.e. all groups received twice daily (BID) dose administration by oral gavage (PO) at the relevant dose volumes and schedule shown in Table 9. Tumor growth was monitored by measuring luciferase activity twice per week. Total flux/mouse can vary by an order of magnitude on day 1 of study start (start of dosing). The total flux was normalized per mouse by assigning the first measurement of flux on day 2 as 100%. Body weight loss as an indicator of tumor progression was determined daily during the dosing interval and then as needed (at least once weekly). Survival was evaluated through day 90 (30 days post-dosing cessation).

BCRP [9] = settings: reported by Mittapalli et al.; cited from earlier work
BCRP [10] = target: T1, BCRP; settings: dog, 2 h, 1 μM
Procedure: as §4, §5, §6, §7, §8, §9, §10

P-gp (MDR1) [11] = target: T2, P-gp (MDR1); settings: pig, LLC-PK1, 2 h, 1 μM
Procedure: as §11, §6, §7, §8, §9, §10

Chain of full-length FLAG-tagged B-Raf(V600E) (P15056 whole entry V600E): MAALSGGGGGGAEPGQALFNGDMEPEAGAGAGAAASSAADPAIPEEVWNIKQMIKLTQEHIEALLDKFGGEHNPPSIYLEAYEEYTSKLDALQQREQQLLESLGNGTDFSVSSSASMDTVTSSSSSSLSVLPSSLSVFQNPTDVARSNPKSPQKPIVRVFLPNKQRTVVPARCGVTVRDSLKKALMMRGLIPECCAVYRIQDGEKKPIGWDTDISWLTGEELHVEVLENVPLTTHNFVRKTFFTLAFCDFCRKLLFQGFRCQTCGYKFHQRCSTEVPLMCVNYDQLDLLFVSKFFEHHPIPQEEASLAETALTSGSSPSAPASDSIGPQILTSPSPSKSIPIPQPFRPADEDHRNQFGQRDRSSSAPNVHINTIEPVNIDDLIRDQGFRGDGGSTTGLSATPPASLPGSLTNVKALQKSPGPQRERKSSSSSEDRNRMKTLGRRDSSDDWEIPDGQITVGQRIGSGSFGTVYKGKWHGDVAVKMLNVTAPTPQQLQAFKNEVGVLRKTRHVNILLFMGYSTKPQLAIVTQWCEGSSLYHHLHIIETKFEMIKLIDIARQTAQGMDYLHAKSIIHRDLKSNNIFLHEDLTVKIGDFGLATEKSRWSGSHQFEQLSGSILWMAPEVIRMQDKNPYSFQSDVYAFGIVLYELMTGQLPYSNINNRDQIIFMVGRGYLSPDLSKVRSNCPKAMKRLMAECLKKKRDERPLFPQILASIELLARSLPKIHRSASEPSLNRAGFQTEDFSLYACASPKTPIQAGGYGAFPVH
T1 sequence (Q9UNQ0 whole entry, species assumed): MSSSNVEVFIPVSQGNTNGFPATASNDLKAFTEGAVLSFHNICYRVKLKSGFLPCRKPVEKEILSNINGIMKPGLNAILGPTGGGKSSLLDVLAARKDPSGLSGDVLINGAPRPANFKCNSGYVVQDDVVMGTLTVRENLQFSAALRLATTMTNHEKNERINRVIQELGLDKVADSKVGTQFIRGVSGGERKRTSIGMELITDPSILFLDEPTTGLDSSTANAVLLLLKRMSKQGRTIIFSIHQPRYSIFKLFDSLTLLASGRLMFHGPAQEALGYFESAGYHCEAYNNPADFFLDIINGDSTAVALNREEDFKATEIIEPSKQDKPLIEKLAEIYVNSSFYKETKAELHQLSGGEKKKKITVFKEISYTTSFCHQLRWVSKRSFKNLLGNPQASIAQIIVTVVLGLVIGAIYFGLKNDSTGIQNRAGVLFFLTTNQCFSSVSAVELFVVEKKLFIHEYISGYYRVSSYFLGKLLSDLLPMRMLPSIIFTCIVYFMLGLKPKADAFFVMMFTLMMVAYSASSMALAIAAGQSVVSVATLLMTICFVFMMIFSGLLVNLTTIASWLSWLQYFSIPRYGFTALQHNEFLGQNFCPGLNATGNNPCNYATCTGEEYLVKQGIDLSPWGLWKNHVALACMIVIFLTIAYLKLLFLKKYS
T2 sequence (P08183 whole entry, species assumed): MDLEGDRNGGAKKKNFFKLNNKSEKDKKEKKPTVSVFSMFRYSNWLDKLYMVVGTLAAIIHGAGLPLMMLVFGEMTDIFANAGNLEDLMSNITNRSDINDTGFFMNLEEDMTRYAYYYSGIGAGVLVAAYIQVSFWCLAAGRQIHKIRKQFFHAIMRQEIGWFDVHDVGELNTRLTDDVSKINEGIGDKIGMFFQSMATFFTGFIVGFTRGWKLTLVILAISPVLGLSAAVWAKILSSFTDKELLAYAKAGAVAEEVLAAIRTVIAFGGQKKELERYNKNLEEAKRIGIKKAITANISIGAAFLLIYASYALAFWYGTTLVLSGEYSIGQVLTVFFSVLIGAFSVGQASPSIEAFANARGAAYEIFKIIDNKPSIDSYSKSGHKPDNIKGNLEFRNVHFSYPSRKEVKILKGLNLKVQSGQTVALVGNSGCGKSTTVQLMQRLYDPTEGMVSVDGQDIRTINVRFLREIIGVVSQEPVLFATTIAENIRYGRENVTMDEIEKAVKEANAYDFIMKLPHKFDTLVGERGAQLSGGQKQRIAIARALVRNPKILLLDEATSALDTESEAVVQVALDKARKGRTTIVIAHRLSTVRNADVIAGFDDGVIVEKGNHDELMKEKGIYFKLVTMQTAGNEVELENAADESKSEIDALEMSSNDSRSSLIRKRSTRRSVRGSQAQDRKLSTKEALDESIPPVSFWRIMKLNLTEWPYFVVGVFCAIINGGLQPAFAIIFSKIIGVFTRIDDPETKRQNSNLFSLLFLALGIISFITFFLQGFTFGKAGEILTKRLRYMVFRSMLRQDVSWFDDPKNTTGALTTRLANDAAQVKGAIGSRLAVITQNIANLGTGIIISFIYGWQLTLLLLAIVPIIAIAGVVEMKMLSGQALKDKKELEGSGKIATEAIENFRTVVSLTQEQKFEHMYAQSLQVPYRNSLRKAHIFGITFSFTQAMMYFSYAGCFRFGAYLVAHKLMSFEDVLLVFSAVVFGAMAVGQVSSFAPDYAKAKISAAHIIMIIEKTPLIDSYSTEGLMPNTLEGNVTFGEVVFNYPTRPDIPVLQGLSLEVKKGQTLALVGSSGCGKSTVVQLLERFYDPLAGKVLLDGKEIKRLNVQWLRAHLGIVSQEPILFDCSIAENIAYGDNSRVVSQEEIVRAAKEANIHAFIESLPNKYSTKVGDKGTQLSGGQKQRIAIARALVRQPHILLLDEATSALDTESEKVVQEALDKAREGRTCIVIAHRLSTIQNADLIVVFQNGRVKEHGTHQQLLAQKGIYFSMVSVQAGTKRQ
Chain of GST-tagged B-Raf(V600K) (P15056 2-766 V600K limits assumed): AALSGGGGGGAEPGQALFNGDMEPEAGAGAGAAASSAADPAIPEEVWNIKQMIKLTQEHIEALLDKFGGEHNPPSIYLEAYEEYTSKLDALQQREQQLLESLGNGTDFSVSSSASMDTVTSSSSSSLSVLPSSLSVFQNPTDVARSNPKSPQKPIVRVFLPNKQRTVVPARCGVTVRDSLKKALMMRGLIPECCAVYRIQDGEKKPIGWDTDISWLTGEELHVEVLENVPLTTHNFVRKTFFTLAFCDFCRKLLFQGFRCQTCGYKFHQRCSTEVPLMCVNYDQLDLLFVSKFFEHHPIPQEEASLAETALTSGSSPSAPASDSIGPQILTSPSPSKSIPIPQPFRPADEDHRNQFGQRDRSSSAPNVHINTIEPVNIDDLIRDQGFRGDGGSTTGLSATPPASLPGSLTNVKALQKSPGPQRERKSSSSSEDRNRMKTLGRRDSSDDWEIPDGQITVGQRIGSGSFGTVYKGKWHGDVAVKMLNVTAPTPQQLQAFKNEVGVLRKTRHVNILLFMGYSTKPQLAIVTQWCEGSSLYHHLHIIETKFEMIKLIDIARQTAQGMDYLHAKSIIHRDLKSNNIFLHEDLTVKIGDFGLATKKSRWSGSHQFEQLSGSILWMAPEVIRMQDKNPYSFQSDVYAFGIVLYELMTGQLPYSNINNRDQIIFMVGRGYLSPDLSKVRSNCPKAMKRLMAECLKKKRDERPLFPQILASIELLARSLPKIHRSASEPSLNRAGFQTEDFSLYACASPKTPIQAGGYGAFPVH

Row | Compound | IC50 [1] | BCRP efflux ratio (BCRP [2]) | MDR1 efflux ratio (P-gp (MDR1) [3]) | Permeability (*10^−6 cm/s) [4] | also measured
1 | Cc1c(Nc2c(F)cnc(NS(=O)(=O)CC3CC3)c2F)ccc2ncn(C)c(=O)c12 [Example 42, 1-cyclopropyl-N-(4-((3,5-dimethyl-4-oxo-3,4-dihydroquinazolin-6-yl)amino)-3,5-difluoropyridin-2-yl) methanesulfonamide] | 60.3 nM | 23.73 | 5.26 | 18.35 *10^−6 cm/s | 
2 | CCCS(=O)(=O)Nc1cc(Cl)cc(Nc2ccc3ncn(C)c(=O)c3c2C)c1Cl [Example 48, N-(2,5-dichloro-3-((3,5-dimethyl-4-oxo-3,4-dihydroquinazoli-6-yl)amino)phenyl) propane-1-sulfonamide] |  |  |  |  | Permeability (*10^−6 cm/s) [5]: 25.83 *10^−6 cm/s
3 | CCN(C)S(=O)(=O)Nc1ccc(F)c(Nc2ccc3ncn(C)c(=O)c3c2C)c1Cl [Example 54, N-(2-chloro-3-((3,5-dimethyl-4-oxo-3,4-dihydroquinazolin-6-yl)amino)-4-fluorophenyl)-N-ethyl-N-methylamino-1-sulfonamide] |  |  |  |  | Permeability (*10^−6 cm/s) [5]: 35.81 *10^−6 cm/s
4 | CCCS(=O)(=O)Nc1ccc(F)c(Oc2ccc3ncn(C)c(=O)c3c2C)c1Cl [Example 55, N-{2-chloro-3-[(3,5-dimethyl-4-oxo-3,4-dihydroquinazolin-6-yl)oxy]-4-fluorophenyl}propane-1-sulfonamide] | 5.4 nM |  |  |  | efflux ratio at 2 h, 1 μM (BCRP [2]): 0.83; Kp,uu (unbound brain-to-unbound plasma ratio) [6]: 0.46 to 0.51; IC50 (GST-tagged B-Raf(V600K)): 3.1 nM; efflux ratio at 2 h, 1 μM (P-gp (MDR1) [3]): 1.1; Papp at 2 h, 1 μM [7]: 23.8 ×10⁻⁶ cm/s
5 | CCCS(=O)(=O)Nc1ncc(F)c(Oc2ccc3ncn(C)c(=O)c3c2C)c1Cl [Example 63, N-(3-chloro-4-((3,5-dimethyl-4-oxo-3,4-dihydroquinazolin-6-yl)oxy)-5-fluoropyridin-2-yl)propane-1-sulfonamide] | 2.8 nM |  |  |  | efflux ratio at 2 h, 1 μM (BCRP [2]): 7.7; Kp,uu (unbound brain-to-unbound plasma ratio) [6]: 0.34 to 0.4; IC50 (GST-tagged B-Raf(V600K)): 2.4 nM; efflux ratio at 2 h, 1 μM (P-gp (MDR1) [3]): 1.3; Papp at 2 h, 1 μM [7]: 26.1 ×10⁻⁶ cm/s
6 | Cc1c(Nc2c(F)ccc(NS(=O)(=O)CCCF)c2Cl)ccc2ncn(C)c(=O)c12 [Example 82, N-(2-chloro-3-((3,5-dimethyl-4-oxo-3,4-dihydroquinazolin-6-yl)amino)-4-fluorophenyl)-3-fluoropropane-1-sulfonamide] |  |  |  |  | Tumor growth (total bioluminescence, luciferase activity) [8]: significant effect on tumor growth
7 | CC(C)(C)c1nc(-c2cccc(NS(=O)(=O)c3c(F)cccc3F)c2F)c(-c2ccnc(N)n2)s1 [dabrafenib] |  |  |  |  | BCRP efflux ratio (BCRP [9]): 21.0
8 | N-(2-chloro-3-((3,5- dimethyl-4-oxo-3,4- dihydroquinazolin-6- yl)amino)-4- fluorophenyl) benzenesulfonamide [Example 49] | 3.95 nM | 0.97 | 1.24 | 30.68 *10^−6 cm/s | 
9 | N-(2-chloro-3-((3,5- dimethyl-4-oxo-3,4- dihydroquinazolin-6- yl)amino)-4- fluorophenyl) ethanesulfonamide [Example 52] | 226 nM | 1.28 | 1.76 | 28.91 *10^−6 cm/s | 
10 | N-(2-chloro-3-((3,5- dimethyl-4-oxo-3,4- dihydroquinazolin-6- yl)amino)-4- fluorophenyl)-1- cyclopropyl- methanesulfonamide [Example 50] | 66.1 nM | 1.13 | 1.54 | 21.88 *10^−6 cm/s | 
11 | N-(2-chloro-3-((3,5- dimethyl-4-oxo-3,4- dihydroquinazolin-6- yl)amino)-4- fluorophenyl)-2- methylpropane-1- sulfonamide [Example 51] | 63.4 nM | 1.28 | 1.64 | 27.16 *10^−6 cm/s | 
12 | N-(2-chloro-3-((3,5- dimethyl-4-oxo-3,4- dihydroquinazolin-6- yl)amino)-5- fluorophenyl)-3- fluoropropane-1- sulfonamide [Example 44] | 6.05 nM | 2.84 | 1.05 | 24.2 *10^−6 cm/s | 
13 | N-(2-cyano-3-((3,5- dimethyl-4-oxo-3,4- dihydroquinazolin-6- yl)amino)phenyl) propane-1-sulfonamide [Example 53] | 9.4 nM |  |  |  | BCRP efflux ratio (BCRP [10]): 22.97; MDR1 efflux ratio (P-gp (MDR1) [11]): 2.6; Permeability (*10^−6 cm/s) ([5]; 2 h, 1 μM): 27.13 *10^−6 cm/s
14 | N-(3-((3,5-dimethyl-4- oxo-3,4- dihydroquinazolin-6- yl)amino)-2-fluoro-5- methylphenyl)propane- 1-sulfonamide [Example 46] | 148 nM |  |  |  | BCRP efflux ratio (BCRP [10]): 1.48; MDR1 efflux ratio (P-gp (MDR1) [11]): 1.43; Permeability (*10^−6 cm/s) ([5]; 2 h, 1 μM): 30.74 *10^−6 cm/s
15 | N-(3-chloro-4-((3,5- dimethyl-4-oxo-3,4- dihydroquinazolin-6- yl)amino)-5- fluoropyridin-2- yl)ethanesulfonamide [Example 45] | 137 nM | 11.29 | 2.47 | 16.56 *10^−6 cm/s | 
16 | N-(3-chloro-4-((3,5- dimethyl-4-oxo-3,4- dihydroquinazolin-6- yl)amino)-5- fluoropyridin-2-yl)-1- cyclopropyl- methanesulfonamide [Example 47] | 41.7 nM | 7.93 | 1.84 | 25.7 *10^−6 cm/s | 
17 | N-(4-((3,5-dimethyl-4- oxo-3,4- dihydroquinazolin-6- yl)amino)-3,5- difluoropyridin-2- yl)ethanesulfonamide [Example 43] | 260 nM | 26.02 | 5.24 | 8.75 *10^−6 cm/s | 
